Where “and” joins values, the source holds several entries; their conditions need not be identical. Equal entries are not always repeated.
Test system: 186277-243-T-J2-PDC spheroids with HUVEC/MSC, viability
Assay: Anticancer human tumor 186277-243-T-J2-PDC patient-derived colon adenocarcinoma cell line growth inhibition [CLK]
Conditions: for viability, T/C: stronger effect = lower value
Description: A high-throughput screen of multi-cell type tumor spheroids was designed to identify active combinations of […] and targeted small molecules. Complex spheroids include a stromal component modeled by human endothelial cells (HUVEC) and fibroblasts modeled by human mesenchymal stem cells (MSCs). The concentration ranges selected for each drug and investigational agent were based upon clinically achievable concentrations if the clinical Cmax of the agent was known.
Compounds. The drugs and investigational agents: cirtuvivint (SM08502; NSC835563), CC-671 (NSC850746), vemurafenib (NSC761431), tapotoclax (NSC804041), sotorasib (NSC818433), adagrasib (NSC831453), MRTX-1133 (NSC836407), BAY2416964 (NSC825713), copanlisib (NSC816437), inavolisib (NSC800729), abemaciclib (NSC768073), osimertinib (NSC779217), entinostat (NSC756642), eltanexor (KPT-8602, NSC794443), venetoclax (NSC766270), ceralasertib (NSC777638), bortezomib (NSC756655), olaparib (NSC753686), talazoparib (NSC767125), alisertib (NSC759677), peposertib (NSC802822), gemcitabine (NSC613327), 5-fluorouracil (NSC19893), SN-38 (NSC673596), oxaliplatin (NSC266046), paclitaxel (NSC125973), and doxorubicin (NSC123127), were obtained from the National Cancer Institute (NCI) Developmental Therapeutics Program Chemical Repository. The FDA-approved anticancer drug set is available from the Developmental Therapeutics Program at https://dtp.cancer.gov/organization/dscb/obtaining/available plates.htm. […] The stock solutions were prepared in dimethyl sulfoxide (DMSO, Sigma-Aldrich, St. Louis, MO, cat. D2650), except for the platinum complexes which were prepared in saline (Quality Biological, Gaithersburg, MD, cat. 114-055-101), at 800-fold the tested concentration and stored at -70 degrees C prior to their use. All drugs and investigational agents were tested over a range starting from a high concentration at or near the clinical Cmax and decreasing in half-log increments. If the clinical Cmax for an agent had not been determined, the highest concentration tested was 10 microM.
Cell Culture. All cells were maintained in an incubator at 37 degrees C and 5% CO2 with 95% humidity. The PDC lines were cultured according to standard operating procedures established by the NCI PDMR. Briefly, all PDCs were thawed and cultured in Matrigel-coated flasks prepared with a working solution of 1X Ham's F-12 nutrient mix, without supplementation (Invitrogen, Waltham, MA, cat. 11765054), 100 U/mL penicillin-streptomycin (Invitrogen, cat. 15140122), and 2.5% Matrigel (Corning Inc., Corning, NY, cat. 354248) for the first three passages. The 947758-054-R-J2-PDC line was cultured in 6B/Colon 1A media, which includes advanced DMEM/F-12 (Thermo Fisher Scientific, cat. 12634028), 10 mM HEPES (Thermo Fisher Scientific, cat. 15630080), 1X GlutaMAX supplement (Thermo Fisher Scientific, cat. 35050061), 0.1 mg/mL primocin (InvivoGen, cat. ant-pm-2), 10% defined fetal bovine serum, heat inactivated (HyClone Laboratories Inc., cat. SH30070.03HI), 1.25 mM N-Acetyl-L-cysteine (Sigma-Aldrich, cat. A9165), 10 mM nicotinamide (Sigma-Aldrich, cat. N0636), 1X B-27 supplement (Thermo Fisher Scientific, cat. 17504044), 1X N-2 supplement (Thermo Fisher Scientific, cat. 17502048), and 10 microM Y-27632 dihydrochloride (Tocris Bioscience, cat. 1254). The 876862-298-R-J1-PDC was cultured in 6E media, which includes all 6B/Colon 1A media components plus 50% L-WRN conditioned media (ATCC, cat. CRL-3276), 50 ng/mL recombinant human EGF recombinant protein (hEGF; Thermo Fisher Scientific, cat. PHG0311), 10 ng/mL recombinant human fibroblast growth factor 10 (hGFG-10; PeproTech, cat. 100-26), 1 ng/mL recombinant human fibroblast growth factor 2 (hFGF-2; PeproTech, cat. 100-18B), and 1 µM prostaglandin E2 (PGE2; Tocris, cat. 2296). The 227483-062-R1-J1-PDC line was cultured in Panc media, containing all 6E components except hFGF-2, with the addition of 500 nM SB-431542 (Selleckchem, cat. S1067) and 10 nM gastrin (Tocris, cat. 3006). […]
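Further: compound exposure lasted seven days before readout.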
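Wherever viability, T/C is given: 100% = DMSO vehicle control wells.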

**Q.** For `Nc1ccn(C2OC(CO)C(O)C2(F)F)c(=O)n1` (centres undefined) + CN1CCN(c2cc(C(=O)Nc3cc4cc(-c5cnn(C)c5)ccc4cn3)ccn2)CC1, which IC50 (curve of first compound, second compound 0.0316 µM) is on record?
**A.** < 31.6 nM

**Q.** And the IC50 (curve of first compound, second compound 0.1 µM)?
**A.** < 31.6 nM

**Q.** And the IC50 (curve of first compound, second compound 0.316 µM)?
**A.** < 31.6 nM

**Q.** And the IC50 (curve of first compound, second compound 1 µM)?
**A.** < 31.6 nM

**Q.** What about the IC50 (curve of first compound, second compound 3.16 µM) of the same compound?
**A.** < 31.6 nM

**Q.** And the IC50 (curve of first compound, second compound 10 µM)?
**A.** < 31.6 nM

**Q.** What about the viability, T/C (second compound 0.0316 µM, first compound 0.0316 µM) of the same compound?
**A.** 14%

**Q.** And the viability, T/C (second compound 0.0316 µM, first compound 0.1 µM)?
**A.** 14.4%

**Q.** What about the viability, T/C (second compound 0.0316 µM, first compound 0.316 µM) of the same compound?
**A.** 13.2%

**Q.** And the viability, T/C (second compound 0.0316 µM, first compound 1 µM)?
**A.** 15.4%

**Q.** And the viability, T/C (second compound 0.0316 µM, first compound 3.16 µM)?
**A.** 15.7%

**Q.** What about the viability, T/C (second compound 0.0316 µM, first compound 10 µM) of the same compound?
**A.** 15%

**Q.** And the viability, T/C (second compound 0.1 µM, first compound 0.0316 µM)?
**A.** 14.1%

**Q.** And the viability, T/C (second compound 0.1 µM, first compound 0.1 µM)?
**A.** 15.4%

**Q.** What about the viability, T/C (second compound 0.1 µM, first compound 0.316 µM) of the same compound?
**A.** 13.7%

**Q.** What about the viability, T/C (second compound 0.1 µM, first compound 1 µM) of the same compound?
**A.** 15.4%

**Q.** And the viability, T/C (second compound 0.1 µM, first compound 3.16 µM)?
**A.** 13.6%

**Q.** And the viability, T/C (second compound 0.1 µM, first compound 10 µM)?
**A.** 13.5%

**Q.** And the viability, T/C (second compound 0.316 µM, first compound 0.0316 µM)?
**A.** 14.8%

**Q.** What about the viability, T/C (second compound 0.316 µM, first compound 0.1 µM) of the same compound?
**A.** 12.4%

**Q.** And the viability, T/C (second compound 0.316 µM, first compound 0.316 µM)?
**A.** 13.9%

**Q.** And the viability, T/C (second compound 0.316 µM, first compound 1 µM)?
**A.** 12%

**Q.** And the viability, T/C (second compound 0.316 µM, first compound 3.16 µM)?
**A.** 8.4%

**Q.** And the viability, T/C (second compound 0.316 µM, first compound 10 µM)?
**A.** 7.19%

**Q.** And the viability, T/C (second compound 1 µM, first compound 0.0316 µM)?
**A.** 1.75%

**Q.** What about the viability, T/C (second compound 1 µM, first compound 0.1 µM) of the same compound?
**A.** 1.77%

**Q.** What about the viability, T/C (second compound 1 µM, first compound 0.316 µM) of the same compound?
**A.** 1.48%

**Q.** And the viability, T/C (second compound 1 µM, first compound 1 µM)?
**A.** 0.16%

**Q.** And the viability, T/C (second compound 1 µM, first compound 3.16 µM)?
**A.** 0.64%

**Q.** And the viability, T/C (second compound 1 µM, first compound 10 µM)?
**A.** 0.64%

**Q.** What about the viability, T/C (second compound 3.16 µM, first compound 0.0316 µM) of the same compound?
**A.** 1.77%

**Q.** And the viability, T/C (second compound 3.16 µM, first compound 0.1 µM)?
**A.** 1.46%

**Q.** And the viability, T/C (second compound 3.16 µM, first compound 0.316 µM)?
**A.** 0.93%

**Q.** What about the viability, T/C (second compound 3.16 µM, first compound 1 µM) of the same compound?
**A.** 4.16%

**Q.** And the viability, T/C (second compound 3.16 µM, first compound 3.16 µM)?
**A.** 2.01%

**Q.** What about the viability, T/C (second compound 3.16 µM, first compound 10 µM) of the same compound?
**A.** 0.57%

**Q.** What about the viability, T/C (second compound 10 µM, first compound 0.0316 µM) of the same compound?
**A.** 0.82%

**Q.** What about the viability, T/C (second compound 10 µM, first compound 0.1 µM) of the same compound?
**A.** 0.83%

**Q.** What about the viability, T/C (second compound 10 µM, first compound 0.316 µM) of the same compound?
**A.** 0.9%

**Q.** And the viability, T/C (second compound 10 µM, first compound 1 µM)?
**A.** 1.08%

**Q.** What about the viability, T/C (second compound 10 µM, first compound 3.16 µM) of the same compound?
**A.** 0.95%

**Q.** And the viability, T/C (second compound 10 µM, first compound 10 µM)?
**A.** 0.6%

**Q.** What does the source list for `CCN1CCN(Cc2ccc(Nc3ncc(F)c(-c4cc(F)c5nc(C)n(C(C)C)c5c4)n3)nc2)CC1`?
**A.** viability, T/C (compound 0.00316 µM): 81% and 102%; viability, T/C (compound 0.01 µM): 94.2% and 98.3%; viability, T/C (compound 0.0316 µM): 103% and 120%; viability, T/C (compound 0.1 µM): 121% and 116%; viability, T/C (compound 0.316 µM): 120% and 131%; viability, T/C (compound 1 µM): 117% and 107%; IC50 (curve of compound): > 1000 nM

Reference: PubChem BioAssay AID2060625 (Molecular Pharmacology Branch, DTP, NCI, 2025)
